Results as given in patent publication US9611289B2, “Farnesoid X receptor modulators” (Intercept Pharmaceuticals, Inc., priority 2013, dated 2017).
Values after ≈ are worked out from the molar mass of the structure shown.

How the values were obtained:
VDR = VDR (Homo sapiens, UniProt P11473); test: AlphaScreen nuclear receptor activation; assay type: biochemical
GR = GR (Homo sapiens, UniProt P04150); test: AlphaScreen nuclear receptor activation; assay type: biochemical
FXR target genes = test: Quantitative RT-PCR of FXR target genes in HepG2 cells; assay type: cell-based, human; settings: 1 μM, overnight
PR = PR (Homo sapiens, UniProt P06401); test: AlphaScreen nuclear receptor activation; assay type: biochemical
CYP1A2 = molecular target: T1, CYP1A2 (Homo sapiens, UniProt P05177); test: biochemical
T1 sequence (P05177 1-516): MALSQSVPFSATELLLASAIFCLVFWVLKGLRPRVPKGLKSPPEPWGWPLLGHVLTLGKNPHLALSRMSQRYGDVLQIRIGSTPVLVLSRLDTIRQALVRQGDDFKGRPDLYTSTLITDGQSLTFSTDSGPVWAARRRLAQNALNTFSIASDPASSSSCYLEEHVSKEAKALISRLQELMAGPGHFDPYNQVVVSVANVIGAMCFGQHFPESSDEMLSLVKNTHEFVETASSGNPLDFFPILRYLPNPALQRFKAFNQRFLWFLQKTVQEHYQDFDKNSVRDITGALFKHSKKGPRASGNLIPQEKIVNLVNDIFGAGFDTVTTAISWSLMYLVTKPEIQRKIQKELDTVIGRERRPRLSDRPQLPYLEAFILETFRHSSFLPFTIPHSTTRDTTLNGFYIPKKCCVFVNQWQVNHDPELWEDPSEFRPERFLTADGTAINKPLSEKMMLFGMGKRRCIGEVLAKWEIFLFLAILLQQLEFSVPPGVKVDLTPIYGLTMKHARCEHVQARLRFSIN

CYP3A4 [1] = molecular target: T2, CYP3A4 (Homo sapiens, UniProt P08684); test: biochemical
[2] = 1-octanol-water partition coefficient (LogPA-); settings: ionized species
PPARδ = PPARδ (Homo sapiens, UniProt Q03181); test: AlphaScreen nuclear receptor activation; assay type: biochemical
physchem = settings: water
[3] = Critical micellar concentration; assay type: physicochemical; settings: […] NaCl water solution
LXRβ = LXRβ (Homo sapiens, UniProt P55055); test: AlphaScreen nuclear receptor activation; assay type: biochemical
CAR = CAR (Homo sapiens, UniProt Q14994); test: AlphaScreen nuclear receptor activation; assay type: biochemical
HepG2 cells = test: cells; settings: Homo sapiens, HepG2, read-out: Membrane integrity EC50 (μM) (LDH measure)
RARα = RARα (Homo sapiens, UniProt P10276); test: AlphaScreen nuclear receptor activation; assay type: biochemical
PPARα = PPARα (Homo sapiens, UniProt Q07869); test: AlphaScreen nuclear receptor activation; assay type: biochemical
CYP2D6 = CYP2D6 (Homo sapiens, UniProt P10635); test: biochemical
TR = test: AlphaScreen nuclear receptor activation; assay type: biochemical
PPARγ = PPARγ (Homo sapiens, UniProt P37231); test: AlphaScreen nuclear receptor activation; assay type: biochemical
CYP2E1 = CYP2E1 (Homo sapiens, UniProt P05181); test: biochemical
CYP2C19 = CYP2C19 (Homo sapiens, UniProt P33261); test: biochemical
PXR = molecular target: T3, PXR (Homo sapiens, UniProt O75469); test: AlphaScreen nuclear receptor activation; assay type: biochemical
T3 sequence (O75469 1-434): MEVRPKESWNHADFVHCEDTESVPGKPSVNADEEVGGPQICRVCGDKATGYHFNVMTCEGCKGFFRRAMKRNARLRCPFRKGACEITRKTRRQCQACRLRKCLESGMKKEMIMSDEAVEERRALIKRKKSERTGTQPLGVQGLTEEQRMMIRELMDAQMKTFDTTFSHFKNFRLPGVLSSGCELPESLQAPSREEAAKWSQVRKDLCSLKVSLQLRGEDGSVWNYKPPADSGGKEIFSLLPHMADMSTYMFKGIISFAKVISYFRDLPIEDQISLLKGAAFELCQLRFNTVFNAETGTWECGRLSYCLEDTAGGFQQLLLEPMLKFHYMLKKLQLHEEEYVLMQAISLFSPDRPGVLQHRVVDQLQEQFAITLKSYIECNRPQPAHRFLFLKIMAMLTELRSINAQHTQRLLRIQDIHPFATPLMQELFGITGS

CYP3A4 [4] = molecular target: T2, CYP3A4; test: CYP450 inhibition, recombinant baculosomes, fluorescent signal; settings: read-out: CYP3A4 (Green Substrate) IC50
RXR = test: AlphaScreen nuclear receptor activation; assay type: biochemical
hERG potassium channel = hERG potassium channel (Homo sapiens, UniProt Q12809); test: PREDICTOR hERG Fluorescence Polarization assay; settings: CHO-hERG membrane preparations
Surface tension at CMC = assay type: physicochemical; settings: […] NaCl water solution
CYP2C9 = CYP2C9 (Homo sapiens, UniProt P11712); test: biochemical

CC[C@H]1[C@@H](O)[C@@H]2[C@H](CC[C@]3(C)[C@@H]([C@H](C)CCC(=O)O)CC[C@@H]23)[C@@]2(C)CC[C@@H](O)C[C@@H]12 [Compound A, 6α-ethyl-3α,7α-dihydroxy-5β-cholan-24-oic acid]
VDR Activation EC50 (μM) (VDR): No activity
GR Activation EC50 (μM) (GR): No activity
APOCII gene expression (FXR target genes): up
BSEP gene expression (FXR target genes): up
CYP7α1 gene expression (FXR target genes): down
FGF-19 gene expression (FXR target genes): up
MRP2 gene expression (FXR target genes): up
OSTα gene expression (FXR target genes): up
OSTβ gene expression (FXR target genes): up
PEPCK gene expression (FXR target genes): up
PLTP gene expression (FXR target genes): up
PPARγ gene expression (FXR target genes): up
SHP gene expression (FXR target genes): up
SREBP-1C gene expression (FXR target genes): down
UGT2B4 gene expression (FXR target genes): up
PR Activation EC50 (μM) (PR): No activity
IC50 (CYP1A2): > 10 µM
IC50 (CYP3A4 [1]): > 10 µM
LogPA−(d) 1-octanol-water partition coefficient [2]: 2.5
PPARδ Activation EC50 (μM) (PPARδ): No activity
ER Activation EC50 (μM) (ER): No activity
solubility (physchem): 9 µM (≈ 3.79 µg/mL)
CMC(b) (mM) Critical Micellar Concentration [3]: 2.9 mM
LXRβ Activation EC50 (μM) (LXRβ): No activity
CAR Activation EC50 (μM) (CAR): No activity
EC50 (HepG2 cells): 190 ± 30 µM
RARα Activation EC50 (μM) (RARα): No activity
PPARα Activation EC50 (μM) (PPARα): No activity
IC50 (CYP2D6): > 10 µM
TR Activation EC50 (μM) (TR): No activity
PPARγ Activation EC50 (μM) (PPARγ): No activity
IC50 (CYP2E1): > 10 µM
IC50 (CYP2C19): > 10 µM
PXR Activation EC50 (μM) (PXR): No activity
IC50 (CYP3A4 [4]): > 10 µM
RXR Activation EC50 (μM) (RXR): No activity
block or inhibition of the hERG potassium channel (hERG potassium channel): does not block or inhibit
STCMC(c) (Dyne/cm) Surface Tension at CMC (Surface tension at CMC): 43.2-48.8 Dyne/cm
IC50 (CYP2C9): > 10 µM
